Experimental data taken from US8394630B2, “Producing a mammalian pluripotent cell population from mammalian blastomere-like stem cells (BLSCs)” (StemBios Technologies, Inc., priority 2009, dated 2013).

Tested on: BLSCs
Assay: Culturing BLSCs in medium containing RA or TGF-β to produce SBR and SBT cells
Assay type: cell-based, human
Settings: StemBios-003 medium, 0.1 to 20 μM RA or 1 to 40 nM TGF-β, over 2-6 weeks
Method: The method for activation, purification, and expansion of BLSCs has been described in WO/2007/100845. In this example, BLSCs were purified from blood of a human subject using two methods. The isolated cells were analyzed by flow cytometry.
The purified BLSCs were cultured in StemBios-001. To produce SBR and SBT cells, BLSCs were cultured in a StemBios-002 medium for 2 weeks. Then, the BLSCs were cultured in a StemBios-003 medium containing 0.1 to 20 μM of RA or 1 to 40 nM of TGF-β for over 2˜6 weeks. […] These cells were named SBR and SBT cells respectively.

Substance: TGF-β
- change of morphology and sizes of cultured BLSCs: gradually changed their morphology and sizes
